We go through 15 compounds from patent publication US20240239794A1, “PKC-Theta Modulators” (Exscientia AI Limited, priority 2021, published 2024).

Read-outs that look alike come from different tables or passages of the source. Bounds are passed on as bounds.

Experiment [1] relates to IL-2 secretion by human effector memory T cells (TEM). In words: Effector memory T cells IL-2 release assay. The settings on record: T-cell, human CD4+ TEM cells, CD3/CD28 bead stimulation, 24 h. Format: cell-based. Here is the method:
Test compound-mediated inhibition of NFκB signalling in T cells was assessed by quantification of the IL-2 secretion by human effector memory T cells (TEM) upon treatment and stimulation. Human TEM cells were isolated from buffy coats of healthy donors obtained from the French blood bank. First, peripheral blood mononuclear cells (PBMC) were purified from buffy coats diluted 1:1 with DPBS (Gibco, cat #14190-094) by Pancoll (PAN BIOTECH, cat #P04-60500) density gradient centrifugation at 400×g for 20 minutes. TEM cells were further enriched by negative immuno-magnetic cell sorting using a human CD4+ Effector Memory T Cell Isolation Kit (Miltenyi, cat #130-094-125) according to the manufacturer's instructions. Aliquots of 3×10E6 purified TEM cells were kept frozen in Cryo-SFM medium (PromoCell, cat #C-29912) in gas phase nitrogen until used. Cell purity was verified by flow cytometry analysis of 200 000 PFA-fixed cells previously labelled with monoclonal antibodies anti-CD4-PerCP-Cy5.5 (BD Pharmigen, cat #332772), anti-CD8-V500 (BD Biosciences, cat #561617), anti-CD14-Pacific Blue (Biolegend, cat #325616), anti-CD45 RA-FITC (Biolegend, cat #304106) and anti-CCR7-APC (in CD4+ Effector Memory T Cell Isolation Kit, Miltenyi, cat #130-094-125).
TEM cells were resuspended in complete RPMI medium composed of: RPMI 1640 (Gibco, cat #31870-025), 10% heat inactivated fetal bovine serum (Sigma, cat #F7524), 2 mM GlutaMAX (Gibco, cat #35050-038), 1 mM sodium pyruvate 100× (Gibco, cat #11360-039), 1% MEM non-essential amino acids solution (Gibco, cat #11140-035) and 100 U/mL penicillin, 100 µg/mL streptomycin (Sigma-Aldrich, cat #11074440001). 5,000 cells per well were plated onto flat clear bottom 384 well plates (Corning, cat #3770). 5,000 Dynabeads Human T-Activator CD3/CD28 (Gibco, cat #11132D) were added to each well for cell stimulation. Finally, 10 doses of test compound, originally prepared in DMSO by serial semi-log step dilution, were also added to cells in triplicate wells. Final DMSO concentration in wells was 0.1% in a total volume of 100 µL complete medium. Plates were incubated for 24 h at 37° C. in 5% CO2 atmosphere. After incubation, cell suspensions were centrifuged at 400×g and culture supernatants were recovered and stored at −80° C. Cell viability was assessed by flow cytometry after staining the cells with Fixable Viability Dye eFluor 780 (Invitrogen, cat #65-0865-14). IL-2 levels were determined in cell supernatants using an HTRF human IL-2 detection kit (Cisbio, cat #62HIL02PEH). IL-2 data at the different compound doses were fitted to a 4-parameter logistic curve to determine IC50 values, corresponding to the compound concentration leading to 50% reduction of the maximal IL-2 levels observed in each experiment. Viability data were analysed similarly to exclude cytotoxicity as a cause of IL-2 decrease (see Table 1).

For experiment [2], the target named is Recombinant human PKC-delta (His-tagged 345-676) (Homo sapiens (Human), UniProt Q05655). In words: PKC-delta inhibition assay (HTRF KinEASE kit), PKC-theta/PKC-delta selectivity. In kind it is biochemical. The note with it: ratio; for PKC-theta/PKC-delta selectivity: PKC-theta over PKC-delta, HTRF assays; for PKC-theta/PKC-delta selectivity (binned): binned A to G. Here is the method: (§1) PKC-theta and PKC-delta biochemical activities were measured using the PKC-theta HTRF KinEASEkit kit, according to manufacturer's instructions (Cisbio, catalogue number 61ST1PEJ). Briefly, the kinase buffer component of the kit was supplemented with 10 mM MgCl2, 1 mM DTT and 0.1% Tween 20. For the PKC-theta assay, STK substrate and ATP were added to provide a final assay concentration of 525 nM and 6.5 μM, respectively. For the PKC-delta assay, STK substrate and ATP were added to provide a final assay concentration of 243 nM and 5.7 μM, respectively. The streptavidin_XL665 and STK antibody-cryptate detection reagents were mixed according to the manufacturer's instructions. Test compounds were diluted in DMSO in a series of 10 semi-log step doses; 10 nL of each compound dose were dispensed in 384 well plates. Recombinant human PKC-theta (His-tagged 362-706) or PKC-delta (His-tagged 345-676) was diluted into kinase buffer to provide a final assay concentration of 10 ng/ml and added to the test compound for 30 minutes on ice. The reaction was started by addition of the substrate and ATP and incubated at 25° C. for 30 minutes or 20 minutes for the PKC-theta and PKC-delta assays, respectively. The detection reagents were added, and the plate was incubated in the dark for 2 hours. Fluorescence was measured on an Envision 2103 plate reader with optical setup for […] in the HTRF mode. The ratio of acceptor and donor emission signals was calculated for each well. Percent inhibition values were calculated from the HTRF ratios at different doses and fitted to a 4-parameter logistic curve to determine IC50 values (see Table 1).
On the technique in general: Time-resolved FRET reads energy transfer from a long-lived donor to a nearby acceptor.

Experiment [3] has as its target Recombinant human PKC-theta (His-tagged 362-706) (Homo sapiens (Human), UniProt Q04759). In words: PKC-theta inhibition assay (HTRF KinEASE kit). In kind it is biochemical. The note with it: ATP 6.5 μM. The procedure: as §1
Where [4] appears, read: binned A to G, read-out: PKC-theta IL2 pIC50 (binned) (converted).
The mark [5] stands for this setting: read-out: PKC-theta IL2 pIC50 (converted).
Where [6] appears, read: binned A to H, read-out: PKC-theta HTRF pIC50 (binned) (converted).
The mark [7] stands for this setting: read-out: PKC-theta HTRF pIC50 (converted).

Recombinant human PKC-theta (His-tagged 362-706), sequence (Q04759 362-706): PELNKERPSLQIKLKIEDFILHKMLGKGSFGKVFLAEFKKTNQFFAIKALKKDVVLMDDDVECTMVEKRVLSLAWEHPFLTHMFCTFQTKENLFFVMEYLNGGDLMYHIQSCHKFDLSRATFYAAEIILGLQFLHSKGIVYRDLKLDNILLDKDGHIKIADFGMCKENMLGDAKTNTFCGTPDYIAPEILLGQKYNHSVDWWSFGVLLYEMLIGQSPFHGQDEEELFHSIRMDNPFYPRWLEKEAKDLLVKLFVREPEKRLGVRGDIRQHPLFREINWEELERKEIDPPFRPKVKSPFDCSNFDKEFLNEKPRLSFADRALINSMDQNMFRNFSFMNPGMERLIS
Recombinant human PKC-delta (His-tagged 345-676), sequence (Q05655 345-676): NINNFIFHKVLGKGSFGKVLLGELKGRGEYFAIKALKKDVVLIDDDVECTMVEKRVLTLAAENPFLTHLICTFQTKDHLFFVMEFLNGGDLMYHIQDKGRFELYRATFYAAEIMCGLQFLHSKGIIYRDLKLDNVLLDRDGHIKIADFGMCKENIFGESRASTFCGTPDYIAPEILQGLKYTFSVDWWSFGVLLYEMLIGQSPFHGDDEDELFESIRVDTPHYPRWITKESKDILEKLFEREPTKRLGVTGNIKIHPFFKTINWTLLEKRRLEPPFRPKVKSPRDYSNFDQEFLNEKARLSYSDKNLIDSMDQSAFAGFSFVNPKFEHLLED

For `CC1(C)C(=O)Nc2nccc(-c3nn([C@H]4CCNC[C@@H]4F)c4ccccc34)c21` (racemic) [Example 36], the IC50 is 0.1 to 0.316 µM in experiment [1] (setting [4]), 0.126 µM in experiment [1] (setting [5]) and 0.00316 to 0.01 µM in experiment [3] (setting [6]). Besides, the PKC-theta/PKC-delta selectivity in experiment [2] is 14. In addition, the “PKC-theta/PKC-delta selectivity (binned)” value in experiment [2] was “D (D means a ratio of between 10 and 20)”. Moreover, the “PKC-theta HTRF pIC50” value in experiment [3] was found to be 8.3.

Turning to `C[C@@]1(O)C(=O)Nc2nccc(-c3nn(C4CCNCC4)c4ccccc34)c21` (single isomer, unassigned) [Example 27], the IC50 in experiment [1] (setting [4]) is more than 1 µM; in experiment [1] (setting [5]) it was 1.58 µM; in experiment [3] (setting [6]), 0.0316 to 0.1 µM; in experiment [3] (setting [7]), 0.0501 µM. For the same compound, the PKC-theta/PKC-delta selectivity in experiment [2] worked out at 5. For the same compound, the “PKC-theta/PKC-delta selectivity (binned)” value in experiment [2] was “E (E means a ratio of between 5 and 10)”.

Take `C[C@]1(O)C(=O)Nc2nccc(-c3nn(C4CCNCC4)c4ccccc34)c21` (single isomer, unassigned) [Example 28]: the IC50 is 0.01 to 0.0316 µM in experiment [1] (setting [4]), 0.0316 µM in experiment [1] (setting [5]), 0.001 to 0.00316 µM in experiment [3] (setting [6]) and 0.002 µM in experiment [3] (setting [7]). For the same compound, the PKC-theta/PKC-delta selectivity in experiment [2] was 15. Also, the “PKC-theta/PKC-delta selectivity (binned)” value in experiment [2] was “D (D means a ratio of between 10 and 20)”.

Take `C[C@@]1(O)C(=O)Nc2nccc(-c3nn(CC4CCNCC4)c4ccccc34)c21` (single isomer, unassigned) [Example 29]: the IC50 is 0.0316 to 0.1 µM in experiment [1] (setting [4]), 0.0398 µM in experiment [1] (setting [5]), not above 0.001 µM in experiment [3] (setting [6]) and 0.000398 µM in experiment [3] (setting [7]). In addition, the PKC-theta/PKC-delta selectivity in experiment [2] was 24. Further, in experiment [2], the “PKC-theta/PKC-delta selectivity (binned)” value is “C (C means a ratio of between 20 and 30)”.

On to `CC1(C)C(=O)Nc2nccc(-c3nn(C[C@@]4(C)COCCN4)c4ccccc34)c21` (single isomer, unassigned) [Example 31], for which the IC50 in experiment [1] (setting [4]) was 0.0316 to 0.1 µM; in experiment [1] (setting [5]) it was 0.0398 µM; in experiment [3] (setting [6]), 0.001 to 0.00316 µM. Further, the PKC-theta/PKC-delta selectivity in experiment [2] is recorded as 22. Also, the “PKC-theta/PKC-delta selectivity (binned)” value in experiment [2] is “C (C means a ratio of between 20 and 30)”. Moreover, the “PKC-theta HTRF pIC50” value in experiment [3] came to 8.9.

Regarding `C[C@@]1(O)C(=O)Nc2nccc(-c3nn(C4(CC#N)CCC4)c4ccccc34)c21` (single isomer, unassigned) [Example 40], the IC50 in experiment [1] (setting [4]) was 0.01 to 0.0316 µM; in experiment [1] (setting [5]) it was 0.0158 µM; in experiment [3] (setting [6]), not above 0.001 µM; in experiment [3] (setting [7]) it was 0.0002 µM. Further, the PKC-theta/PKC-delta selectivity in experiment [2] is on record as 17. Also, in experiment [2], the “PKC-theta/PKC-delta selectivity (binned)” value was “D (D means a ratio of between 10 and 20)”.

With `C[C@@]1(O)C(=O)Nc2nccc(-c3nn(C4CCNCC4)c4cc(C(F)(F)F)ccc34)c21` (single isomer, unassigned) [Example 42], the IC50 in experiment [1] (setting [4]) is 0.316 to 1 µM; in experiment [1] (setting [5]) it was 0.398 µM; in experiment [3] (setting [6]) it was 0.01 to 0.0316 µM; in experiment [3] (setting [7]) it was 0.0251 µM.

As for `C[C@@]1(O)C(=O)Nc2nccc(-c3nn(C4CCNCC4)c4c(OC(F)F)cccc34)c21` (single isomer, unassigned) [Example 43], the IC50 in experiment [1] (setting [4]) is 0.316 to 1 µM; in experiment [1] (setting [5]), 0.316 µM; in experiment [3] (setting [6]), 0.00316 to 0.01 µM; in experiment [3] (setting [7]) it was 0.00794 µM. Further, the PKC-theta/PKC-delta selectivity in experiment [2] is given as 11. Further, the “PKC-theta/PKC-delta selectivity (binned)” value in experiment [2] is “D (D means a ratio of between 10 and 20)”.

Take `C[C@@]1(O)C(=O)Nc2nccc(-c3nn(CC4(F)CCNCC4)c4ccccc34)c21` (single isomer, unassigned) [Example 47]: the IC50 in experiment [1] (setting [4]) was 0.01 to 0.0316 µM; in experiment [1] (setting [5]), 0.0251 µM; in experiment [3] (setting [6]) it was not above 0.001 µM; in experiment [3] (setting [7]), 0.000631 µM. Besides, the PKC-theta/PKC-delta selectivity in experiment [2] was 12. For the same compound, the “PKC-theta/PKC-delta selectivity (binned)” value in experiment [2] is “D (D means a ratio of between 10 and 20)”.

For `C[C@@]1(O)C(=O)Nc2nccc(-c3nn(C4(CC#N)COC4)c4ccccc34)c21` (single isomer, unassigned) [Example 48], the IC50 in experiment [1] (setting [4]) was 0.316 to 1 µM; in experiment [1] (setting [5]) it was 0.794 µM; in experiment [3] (setting [6]) it was 0.1 to 0.316 µM; in experiment [3] (setting [7]) it was 0.316 µM. Also, the PKC-theta/PKC-delta selectivity in experiment [2] is 33. In experiment [2], the “PKC-theta/PKC-delta selectivity (binned)” value was “B (B means a ratio of between 30 and 50)”.

Turning to `C[C@@]1(O)C(=O)Nc2nccc(-c3nn(C4(CC#N)CNC4)c4ccccc34)c21` (single isomer, unassigned) [Example 49], the IC50 is 0.1 to 0.316 µM in experiment [1] (setting [4]), 0.316 µM in experiment [1] (setting [5]), 0.00316 to 0.01 µM in experiment [3] (setting [6]) and 0.00631 µM in experiment [3] (setting [7]). Moreover, the PKC-theta/PKC-delta selectivity in experiment [2] is 3. The “PKC-theta/PKC-delta selectivity (binned)” value in experiment [2] is “F (F means a ratio of between 1 and 5)”.

Turning to `C[C@@]1(O)C(=O)Nc2nccc(-c3nn([C@@H]4CCNC[C@@H]4F)c4ccccc34)c21` (single isomer, unassigned) [Example 50], the IC50 is 0.01 to 0.0316 µM in experiment [1] (setting [4]), 0.02 µM in experiment [1] (setting [5]), not above 0.001 µM in experiment [3] (setting [6]) and 0.000794 µM in experiment [3] (setting [7]). For the same compound, in experiment [2], the PKC-theta/PKC-delta selectivity is recorded as 11. In addition, the “PKC-theta/PKC-delta selectivity (binned)” value in experiment [2] is “D (D means a ratio of between 10 and 20)”.

For the compound `C[C@@]1(O)C(=O)Nc2nccc(-c3nn(C4(CC#N)CCC4)c4c(F)cccc34)c21` (single isomer, unassigned) [Example 58], the IC50 in experiment [1] (setting [4]) was 0.01 to 0.0316 µM; in experiment [1] (setting [5]), 0.01 µM; in experiment [3] (setting [6]), not above 0.001 µM; in experiment [3] (setting [7]), 0.000501 µM. For the same compound, the PKC-theta/PKC-delta selectivity in experiment [2] was 18. The “PKC-theta/PKC-delta selectivity (binned)” value in experiment [2] is “D (D means a ratio of between 10 and 20)”.

As to `CC[C@]1(C)C(=O)Nc2nccc(-c3nn([C@H]4CCNC[C@H]4F)c4cc(F)ccc34)c21` (single isomer, unassigned) [Example 102], in experiment [2], the PKC-theta/PKC-delta selectivity was determined as 46; the “PKC-theta/PKC-delta selectivity (binned)” value is “B (B means a ratio of between 30 and 50)”. Besides, the IC50 in experiment [3] (setting [6]) is 0.00316 to 0.01 µM. Moreover, the IC50 in experiment [3] (setting [7]) was 0.00631 µM.

Consider `CC1(O)C(=O)Nc2nccc(-c3cn([C@@H]4CCNC4)c4ccccc34)c21` (stereo partly shown) [Example 17], for which, in experiment [2], the PKC-theta/PKC-delta selectivity is given as 7; the “PKC-theta/PKC-delta selectivity (binned)” value is “E (E means a ratio of between 5 and 10)”.
